Assay results: ChEMBL document CHEMBL1124696, “Nucleoside peptides. 10. Synthesis and T-cell immunostimulatory properties of certain peptide derivatives of 6-azacadeguomycin” (1989)

Columns and labels:
Format in all cases: functional
Homo sapiens [1] = species on record: Homo sapiens; test: Mitogen-induced human lymphocyte proliferation measured by incorporation of [3H]thymidine in lymphocytes with Phytohemagglutininin at a concentration of 0.125 ug without compound
Homo sapiens [2] = species on record: Homo sapiens; test: Mitogen-induced human lymphocyte proliferation measured by incorporation of [3H]thymidine in lymphocytes with Pokeweed mitogen at a concentration of 1/2500 ug with compound at 50 uM
Homo sapiens [3] = species on record: Homo sapiens; test: Mitogen-induced human lymphocyte proliferation measured by incorporation of [3H]thymidine in lymphocytes with Concanavalin A (Con A) at a concentration of 0.25 ug with compound at 50 uM
Homo sapiens [4] = species on record: Homo sapiens; test: Mitogen-induced human lymphocyte proliferation measured by incorporation of [3H]thymidine in lymphocytes with Pokeweed mitogen at a concentration of 1/2500 ug with compound at 1 uM.
Homo sapiens [5] = species on record: Homo sapiens; test: Mitogen-induced human lymphocyte proliferation measured by incorporation of [3H]thymidine in lymphocytes with Pokeweed mitogen at a concentration of 1/2500 ug without compound
Homo sapiens [6] = species on record: Homo sapiens; test: Mitogen-induced human lymphocyte proliferation measured by incorporation of [3H]thymidine in lymphocytes with Pokeweed mitogen at a concentration of 1/2500 ug with compound at 400 uM
Homo sapiens [7] = species on record: Homo sapiens; test: Mitogen-induced human lymphocyte proliferation measured by incorporation of [3H]thymidine in lymphocytes with Phytohemagglutininin at a concentration of 0.25 ug with compound at 50 uM
Homo sapiens [8] = species on record: Homo sapiens; test: Mitogen-induced human lymphocyte proliferation measured by incorporation of [3H]thymidine in lymphocytes with Pokeweed mitogen at a concentration of 1/2500 ug with compound at 10 uM
Homo sapiens [9] = species on record: Homo sapiens; test: Mitogen-induced human lymphocyte proliferation measured by incorporation of [3H]thymidine in lymphocytes with Concanavalin A (Con A) at a concentration of 0.25 ug with compound at 10 uM
Homo sapiens [10] = species on record: Homo sapiens; test: Mitogen-induced human lymphocyte proliferation measured by incorporation of [3H]-thymidine in lymphocytes with Phytohemagglutininin at a concentration of 0.25 ug with compound at 0.1 uM
Homo sapiens [11] = species on record: Homo sapiens; test: Mitogen-induced human lymphocyte proliferation measured by incorporation of [3H]thymidine in lymphocytes with Phytohemagglutininin at a concentration of 0.25 ug with compound at 1 uM
Homo sapiens [12] = species on record: Homo sapiens; test: Mitogen-induced human lymphocyte proliferation measured by incorporation of [3H]thymidine in lymphocytes with Concanavalin A (Con A) at a concentration of 0.25 ug with compound at 1 uM
Homo sapiens [13] = species on record: Homo sapiens; test: Mitogen-induced human lymphocyte proliferation measured by incorporation of [3H]thymidine in lymphocytes with Concanavalin A (Con A) at a concentration of 0.25 ug with out compound
Homo sapiens [14] = species on record: Homo sapiens; test: Mitogen-induced human lymphocyte proliferation measured by incorporation of [3H]thymidine in lymphocytes with Phytohemagglutininin at a concentration of 0.25 ug with compound at 10 uM
Homo sapiens [15] = species on record: Homo sapiens; test: Mitogen-induced human lymphocyte proliferation measured by incorporation of [3H]thymidine in lymphocytes with Concanavalin A (Con A) at a concentration of 0.25 ug with compound at 0.1 uM
Homo sapiens [16] = species on record: Homo sapiens; test: Mitogen-induced human lymphocyte proliferation measured by incorporation of [3H]thymidine in lymphocytes with Pokeweed mitogen at a concentration of 1/2500 ug with compound at 0.1 uM
Homo sapiens [17] = species on record: Homo sapiens; test: Mitogen-induced human lymphocyte proliferation measured by incorporation of [3H]thymidine in lymphocytes with Concanavalin A at a concentration of 0.25 ug with compound at 400 uM
Homo sapiens [18] = species on record: Homo sapiens; test: Mitogen-induced human lymphocyte proliferation measured by incorporation of [3H]thymidine in lymphocytes with Phytohemagglutininin at a concentration of 0.25 ug with compound at 400 uM
Homo sapiens [19] = species on record: Homo sapiens; test: Mitogen-induced human lymphocyte proliferation measured by incorporation of [3H]thymidine in lymphocytes with Phytohemagglutininin at a concentration of 0.125 ug with compound at 0.1 uM
Homo sapiens [20] = species on record: Homo sapiens; test: Mitogen-induced human lymphocyte proliferation measured by incorporation of [3H]thymidine in lymphocytes with Pokeweed mitogen at a concentration of 1/2500 ug with compound at 1 uM
Homo sapiens [21] = species on record: Homo sapiens; test: Mitogen-induced human lymphocyte proliferation measured by incorporation of [3H]thymidine in lymphocytes with Phytohemagglutininin at a concentration of 0.125 ug with compound at 400 uM
Homo sapiens [22] = species on record: Homo sapiens; test: Mitogen-induced human lymphocyte proliferation measured by incorporation of [3H]thymidine in lymphocytes with Concanavalin A (Con A) at a concentration of 0.25 microg with compound at 10 uM
Homo sapiens [23] = species on record: Homo sapiens; test: Mitogen-induced human lymphocyte proliferation measured by incorporation of [3H]thymidine in lymphocytes with Phytohemagglutininin at a concentration of 0.125 ug with out compound
Homo sapiens [24] = species on record: Homo sapiens; test: Mitogen-induced human lymphocyte proliferation measured by incorporation of [3H]thymidine in lymphocytes with Phytohemagglutininin at a concentration of 0.125 ug with compound at 10 uM
Homo sapiens [25] = species on record: Homo sapiens; test: Mitogen-induced human lymphocyte proliferation measured by incorporation of [3H]-thymidine in lymphocytes with Phytohemagglutininin at a concentration of 0.125 ug with compound at 50 uM
Homo sapiens [26] = species on record: Homo sapiens; test: Mitogen-induced human lymphocyte proliferation measured by incorporation of [3H]thymidine in lymphocytes with Pokeweed mitogen at a concentration of 1/2500 ug with out compound
Homo sapiens [27] = species on record: Homo sapiens; test: Mitogen-induced human lymphocyte proliferation measured by incorporation of [3H]thymidine in lymphocytes with Phytohemagglutininin at a concentration of 0.125 ug with compound at 1 uM
Homo sapiens [28] = species on record: Homo sapiens; test: Mitogen-induced human lymphocyte proliferation measured by incorporation of [3H]thymidine in lymphocytes with Concanavalin A (Con A) at a concentration of 0.5 ug with compound at 0.1 uM
Homo sapiens [29] = species on record: Homo sapiens; test: Mitogen-induced human lymphocyte proliferation measured by incorporation of [3H]thymidine in lymphocytes with Concanavalin A (Con A) at a concentration of 0.5 ug with compound at 50 uM
Homo sapiens [30] = species on record: Homo sapiens; test: Mitogen-induced human lymphocyte proliferation measured by incorporation of [3H]thymidine in lymphocytes with Concanavalin A (Con A) at a concentration of 0.5 ug with out compound
Homo sapiens [31] = species on record: Homo sapiens; test: Mitogen-induced human lymphocyte proliferation measured by incorporation of [3H]thymidine in lymphocytes with Concanavalin A (Con A) at a concentration of 0.5 ug with compound at 1 uM
Homo sapiens [32] = species on record: Homo sapiens; test: Mitogen-induced human lymphocyte proliferation measured by incorporation of [3H]thymidine in lymphocytes with Concanavalin A (Con A) at a concentration of 0.5 ug with compound at 10 uM
Homo sapiens [33] = species on record: Homo sapiens; test: Mitogen-induced human lymphocyte proliferation measured by incorporation of [3H]thymidine in lymphocytes with Concanavalin A at a concentration of 0.5 ug with compound at 400 uM
Homo sapiens [34] = species on record: Homo sapiens; test: Mitogen-induced human lymphocyte proliferation measured by incorporation of [3H]-thymidine in lymphocytes with Pokeweed mitogen at a concentration of 1/2500 ug with out compound
Homo sapiens [35] = species on record: Homo sapiens; test: Mitogen-induced human lymphocyte proliferation measured by incorporation of [3H]-thymidine in lymphocytes with Pokeweed mitogen at a concentration of 1/2500 ug with compound at 1 uM
Homo sapiens [36] = species on record: Homo sapiens; test: Mitogen-induced human lymphocyte proliferation measured by incorporation of [3H]thymidine in lymphocytes with Phytohemagglutininin at a concentration of 0.25 ug with out compound
Homo sapiens [37] = species on record: Homo sapiens; test: Mitogen-induced human lymphocyte proliferation measured by incorporation of [3H]thymidine in lymphocytes with Pokeweed mitogen at a concentration of 1/5000 ug with compound at 400 uM
Homo sapiens [38] = species on record: Homo sapiens; test: Mitogen-induced human lymphocyte proliferation measured by incorporation of [3H]-thymidine in lymphocytes with Pokeweed mitogen at a concentration of 1/5000 ug with compound at 50 uM
Homo sapiens [39] = species on record: Homo sapiens; test: Mitogen-induced human lymphocyte proliferation measured by incorporation of [3H]thymidine in lymphocytes with Pokeweed mitogen at a concentration of 1/5000 ug with compound at 0.1 uM
Homo sapiens [40] = species on record: Homo sapiens; test: Mitogen-induced human lymphocyte proliferation measured by incorporation of [3H]thymidine in lymphocytes with Pokeweed mitogen at a concentration of 1/5000 ug with out compound
Homo sapiens [41] = species on record: Homo sapiens; test: Mitogen-induced human lymphocyte proliferation measured by incorporation of [3H]thymidine in lymphocytes with Phytohemagglutininin at a concentration of 0.125 ug with compound at 50 uM
Homo sapiens [42] = species on record: Homo sapiens; test: Mitogen-induced human lymphocyte proliferation measured by incorporation of [3H]thymidine in lymphocytes with Pokeweed mitogen at a concentration of 1/5000 ug with compound at 10 uM
Homo sapiens [43] = species on record: Homo sapiens; test: Mitogen-induced human lymphocyte proliferation measured by incorporation of [3H]thymidine in lymphocytes with Phytohemagglutininin at a concentration of 0.25 ug with compound at 0.1 uM
Homo sapiens [44] = species on record: Homo sapiens; test: Mitogen-induced human lymphocyte proliferation measured by incorporation of [3H]thymidine in lymphocytes with Pokeweed mitogen at a concentration of 1/5000 ug with compound at 1 uM

| Compound | Incorporation (Homo sapiens [2]) | Incorporation (Homo sapiens [3]) | Incorporation (Homo sapiens [6]) | Incorporation (Homo sapiens [7]) | Incorporation (Homo sapiens [8]) | Incorporation (Homo sapiens [11]) | Incorporation (Homo sapiens [12]) | Incorporation (Homo sapiens [13]) | Incorporation (Homo sapiens [14]) | Incorporation (Homo sapiens [15]) | Incorporation (Homo sapiens [16]) | Incorporation (Homo sapiens [17]) | Incorporation (Homo sapiens [18]) | Incorporation (Homo sapiens [19]) | Incorporation (Homo sapiens [20]) | Incorporation (Homo sapiens [21]) | Incorporation (Homo sapiens [23]) | Incorporation (Homo sapiens [24]) | Incorporation (Homo sapiens [27]) | Incorporation (Homo sapiens [34]) | other results |
| --- | --- | --- | --- | --- | --- | --- | --- | --- | --- | --- | --- | --- | --- | --- | --- | --- | --- | --- | --- | --- | --- |
| Nc1nc2c(c(C(=O)O)nn2C2O[C@H](CO)[C@@H](O)[C@H]2O)c(=O)[nH]1 (some centres not stated) | 34808 | 22446 | 34537 | 31662 | 36867 | 28393 | 21319 | 21143 | 32955 | 20186 | 35813 | 22619 | 29655 |  |  |  |  |  |  |  | Incorporation (Homo sapiens [1]): 28436; Incorporation (Homo sapiens [4]): 39189; Incorporation (Homo sapiens [5]): 35867; Incorporation (Homo sapiens [9]): 27385; Incorporation (Homo sapiens [10]): 25106 |
| NC(=O)[C@H](Cc1ccccc1)NC(=O)c1nn(C2O[C@H](CO)[C@@H](O)[C@H]2O)c2nc(N)[nH]c(=O)c12 (some centres not stated) | 40511 | 27642 | 37204 |  | 44634 |  | 26510 | 27326 |  | 24317 | 39180 | 30812 |  | 26149 | 41073 | 42771 | 38473 | 54960 | 35042 |  | Incorporation (Homo sapiens [22]): 29989; Incorporation (Homo sapiens [25]): 53121; Incorporation (Homo sapiens [26]): 31047 |
| NC(=O)CNC(=O)c1nn(C2O[C@H](CO)[C@@H](O)[C@H]2O)c2nc(N)[nH]c(=O)c12 (some centres not stated) | 39719 |  | 40023 |  | 44370 |  |  |  |  |  | 44670 |  |  | 27956 | 42288 | 66017 | 35075 | 47343 | 32413 | 39468 | Incorporation (Homo sapiens [28]): 43954; Incorporation (Homo sapiens [29]): 44360; Incorporation (Homo sapiens [30]): 43401; Incorporation (Homo sapiens [31]): 40503; Incorporation (Homo sapiens [25]): 50056; Incorporation (Homo sapiens [32]): 46662; Incorporation (Homo sapiens [33]): 43649 |
| NC(=O)CC[C@H](NC(=O)c1nn(C2O[C@H](CO)[C@@H](O)[C@H]2O)c2nc(N)[nH]c(=O)c12)C(N)=O (some centres not stated) | 44234 | 28119 | 29854 | 43877 | 45049 | 50331 | 30068 | 25758 | 48588 | 26181 | 46067 | 24167 | 39824 |  |  |  |  |  |  | 40326 | Incorporation (Homo sapiens [35]): 39260; Incorporation (Homo sapiens [36]): 57799; Incorporation (Homo sapiens [9]): 31799; Incorporation (Homo sapiens [10]): 49448 |
| N=C(N)NCCC[C@H](NC(=O)[C@H](Cc1ccccc1)NC(=O)c1nn(C2O[C@H](CO)[C@@H](O)[C@H]2O)c2nc(N)[nH]c(=O)c12)C(N)=O (some centres not stated) | 19755 |  | 18394 | 37174 | 18784 | 46087 |  |  | 36688 |  | 17344 |  | 33862 | 22401 | 18470 | 26854 | 23120 | 36645 | 19743 | 15723 | Incorporation (Homo sapiens [37]): 8214; Incorporation (Homo sapiens [28]): 43850; Incorporation (Homo sapiens [36]): 35768; Incorporation (Homo sapiens [29]): 36977; Incorporation (Homo sapiens [30]): 35226; Incorporation (Homo sapiens [38]): 9960; Incorporation (Homo sapiens [39]): 11906; Incorporation (Homo sapiens [40]): 7043; Incorporation (Homo sapiens [31]): 36088; Incorporation (Homo sapiens [41]): 21841; Incorporation (Homo sapiens [32]): 41908; Incorporation (Homo sapiens [42]): 8734; Incorporation (Homo sapiens [43]): 38673; Incorporation (Homo sapiens [33]): 30792; Incorporation (Homo sapiens [44]): 8437 |
